Laboratory results taken from patent US20170183318A1, “AMIDE COMPOUNDS, METHODS FOR PREPARATION, AND USE THEREOF AS AGENTS FOR THE TREATMENT AND PREVENTION OF DISEASES CAUSED BY RNA- AND/OR DNA-CONTAINING VIRUSES, AND CONCOMITANT DISEASES” (OBSCHESTVO S OGRANICHENNOI OTVETSTVENNOSTIYU …, priority 2014, published 2017).
Read-outs that look alike come from different tables or passages of the source. Starred links: 1 amine or outer side, 2 acyl side, 3 side chain; linkers in the order of their positions; H or OH if unused. Non-standard residues stand in square brackets, D forms with d. Residues, ends and D or L forms follow the SMILES beside them. ξ: configuration not given here. Glutaryl = O=C(CCCC(=O)[*:2])[*:1]; ξH = NC(Cc1c[nH]cn1)C(=O)O

Experiments:
[1] = Solubility in water noted for the isolated product; type: physicochemical; conditions: qualitative remark on the isolated product
[2] = tested on: Coxsackie A2 virus (strain HCXV A2); experiment: Antiviral activity against Coxsackie virus in vivo (mortality and life expectancy of infected mice); conditions: for inhibition in vivo at 30 mg/kg / mortality at 30 mg/kg: Mus musculus, po; for inhibition in vivo at 30 mg/kg: 168 h, vs virus control, read-out: Protective index (%); for inhibition in vivo at 30 mg/kg / Average life expectancy (days), Compared with control / Average life expectancy (days), Relative: 30 mg/kg orally once daily for 7 days; for mortality at 30 mg/kg: 360 h, read-out: Total mortality, %; for Average life expectancy (days), Compared with control: difference vs virus control; for Average life expectancy (days), Relative: mice infected with 10LD50 HCXV A2
Experimental: In the study a trypsin-dependent strain HCXV A2 was used, previously adapted and causing death in mice from Coxsackie virus infection.
The experiment was carried out in white mice weighing 6 to 7 g. The animals were infected intramuscularly with a dose of 0.1 mL/mouse. The used infectious dose causing mortality in mice was 10LD50.
The ability of compounds to provide a therapeutic effect was determined by the mortality rate of HCXV A2 virus-infected mice in the experimental group relative to the group of untreated animals.
The studied compounds and placebo were administered orally according to the treatment regimen. Normal saline solution was administered to mice as placebo. Intact animals served as a negative control and were hold in a separate room under the same conditions as the experimental animals.
For the experiment, groups were formed with 14-15 animals each. Compounds were administered at a dose of 30 mg/kg of body weight. The studied compounds were administered orally once daily for 7 days (first administration was made 24 hours after infection). The animals were monitored for 15 days during which the animals were weighed and the mortality rate was registered every day.

human virus hRSV = experiment: Antiviral activity against mouse-adapted RS virus (body weight; viral titer in lungs titrated in Hep-2 cells); type: in vivo, mice; conditions: for hRSV in the lungs of mice, Day 5, lg / hRSV in the lungs of mice, Day 7, lg: 10% lung suspension titrated in Hep-2 cells (TCID); for hRSV in the lungs of mice, Day 5, lg / Body weight of the mice on day 5 after infection with hRSV (M ± SD) / hRSV in the lungs of mice, Day 7, lg / Body weight of the mice on day 7 after infection with hRSV (M ± SD): compounds 30 mg/kg, Ribavirin 40 mg/kg; for Body weight of the mice on day 5 after infection with hRSV (M ± SD) / Body weight of the mice on day 7 after infection with hRSV (M ± SD): orally once daily for 5 days, n = 6; for log reduction at 30 mg/kg: human respiratory syncytial virus, HEp-2, po
Experimental: Antiviral effectiveness of the chemical compounds against RSV in an experimental murine model in vivo was determined for human virus hRSV that was previously adapted to the growth in mouse lungs. The animals were infected with the virus at a dose of 0.5 log TCID50 intranasally under brief ether anesthesia in a volume of 0.05 ml/mouse. The studied compounds were administered orally once daily for 5 days according to the treatment regimen at a dose of 30 mg/kg. The first administration was made 24 hours after infection. Normal saline solution was administered to mice as placebo. Intact animals served as a negative control and were hold in a separate room under the same conditions as the experimental animals. Each experimental group comprised 12 animals.
The antiviral activity of the studied compounds was determined by the efficiency in the prevention of weight loss and by suppression of the reproduction of hRSV in the mouse lungs by measuring a viral titer in the experimental groups relative to the control on days 5 and 7 after infection.
In addition, the therapeutic action of the compounds of general formula I was determined by their ability to suppress the reproduction of hRSV in the mouse lungs on days 5 and 7 after infection. The viral titer was determined by the titration of a 10% lung suspension in Hep-2 cell culture. The result was registered 2 days after the incubation at 37° C. by TCID.

[3] = tested on: herpes simplex virus belonging to antigenic type 2; experiment: Murine model of experimental herpetic meningoencephalitis (mortality); type: in vivo, white outbred mice; conditions: Mus musculus, po, 336 h
Experimental: In the study, herpes simplex virus belonging to antigenic type 2 was used. White outbred mice weighing 7-8 g were infected i/c (intracerebrally) in a volume of 0.05 ml/mouse comprising a dose of 10LD50. The infectious dose of the virus that caused 100% mortality in mice was 10LD50. Each experimental group comprised 20 mice. Intact animals served as control and were hold in a separate room under the same conditions as the experimental animals. The antiviral activity of the compounds of general formula I was studied by oral administration of the compounds to infected mice once daily at a dose of 30 mg/kg/mouse 24, 48, 72, 96, and 120 hours after infection of the animals with the virus. The mice of the control group were administered placebo (0.2 mL of physiological solution) under the same conditions. The animals were monitored for 14 days after infection by registration the mouse death in the groups.
Each animal was subjected to once-daily observation. The observation included the assessment of general behavior and body condition of animals. The animals were handled according to the International Standards.
The activity of the compounds was evaluated by comparing mortality rates in the groups of animals administered a preparation and placebo.

[4] = Rat model of nasopharyngitis induced by formalin (nasal mucosa changes, cell elements in nasal lavage); type: in vivo; conditions: Wistar rats, 18 mg/kg for 3 days; for Mucous membrane of nasal passages: Without changes (number of animals): number of animals out of n = 10, control 0 of 20; for Mucous membrane of nasal passages: Discharge mucus from the nasal passages (number of animals): number of animals out of n = 10, control 20 of 20
Experimental: Nasopharyngitis was induced by intranasal administration of formalin to each nasal passage of rats.
The administration of formalin to the nasal passages of rats leads to the dissemination of inflammation to adjacent tissues, resulting in a clinical pattern similar to the symptoms of nasopharyngitis in a human.
After an acclimatization period, the following groups were formed: • intact animals administered intragastrically a physiological solution in an amount of 0.2 ml, without induction of nasopharyngitis; • a control group consisted of animals administered intragastrically a physiological solution in an amount of 0.2 ml for 3 days after induction of nasopharyngitis; and • animals administered the studied compounds at a dose of 18 mg/kg for 3 days after induction of nasopharyngitis.
Clinical observation of each animal was performed every day at least twice daily.
The caused pathology was characterized by hyperplasia, increased number of caliciform cells, pronounced infiltration of mononuclear cells and leucocytes, and mucus hyperproduction by submucosal glands.
After euthanasia, the inflammation pattern in the nasal passages and throat was studied in each group of animals. The nasal passages were washed with 5 mL of physiological solution and the score of cell elements were counted in 1 μL.

[5] = tested on: human respiratory syncytial virus (strain A2); experiment: Antiviral activity against RS virus in a murine model of suppressed immune system (lung edema); type: in vivo; conditions: Balb/c mice, cyclophosphan-suppressed, RS-virus pneumonia; 30 mg/kg once daily for 5 days; M ± SD, n = 5; scores from possible 4
Experimental: Antiviral activity of the chemical compounds against human respiratory syncytial virus (strain A2, an infectious titer of 5×10^6 TCID50/mL) was assessed in a Balb/c murine model of viral pneumonia. The virus was inoculated to animals intranasally in a volume of 50 μL under brief ether anesthesia. The immune response in animals to RS virus was suppressed by intraperitoneal administration of cyclophosphan at a dose of 100 mg/kg 5 days before infection. The studied compounds were administered according to the treatment regimen once daily at a dose of 30 mg/kg for 5 days, starting 24 hours after infection. The activity of the compounds was determined by a reduction in edema of the lung infected with respiratory syncytial virus, compared to the control, on day 5 after infection.

Staphylococcus aureus = experiment: Murine model of staphylococcal pneumonia (bacterial growth from lung imprints); type: in vivo, outbred mice; conditions: reference drug, intravenously, single dose of 20 mg/kg; lung imprints; control 82.5
Experimental: The efficiency of the compounds was evaluated in outbred mice (females) infected with Staphylococcus aureus (mouse-adapted strain). The administration of the compounds was started 5 days before infection, orally at doses of 15 and 30 mg/kg in a volume of 0.2 mL. On day 5, the mice were infected intranasally under brief ether anesthesia by administration of Staphylococcus aureus at a dose of 10^9 CFU in a volume of 0.05 mL. One hour after infection, the administration of the compounds to the mice was continued at the above-indicated doses for additional 2 days. The reference drug was ampicillin administered intravenously at a single dose of 20 mg/kg. The control was mice infected with Staphylococcus aureus intranasally and treated with PBS. The mice were sacrificed two days after, the breast was dissected, and lung imprints were made in Petri dishes with Columbia agar. After incubation for 24 hours at 30° C., the presence (or absence) of Staphylococcus aureus bacterial growth was fixed in comparison with the control. The intensity of bacterial growth was evaluated in scores and expressed in %.

[6] = 120 h, read-out: Suppression of the reproduction of hRSV in the lungs of mice, Day 5, Δlg
[7] = 168 h, read-out: Suppression of the reproduction of hRSV in the lungs of mice, Day 7, Δlg

## NS(=O)(=O)CCC(=O)NCCc1c[nH]cn1 [Compound 145]
[1]
  Solubility in water: freely soluble in water

## O=C(O)CCC(O)C(=O)NCCc1cnc[nH]1 (stereo not shown) [Compound 67]
[2]
  inhibition in vivo at 30 mg/kg: 50%
  mortality at 30 mg/kg: 35.7%
  Average life expectancy (days), Compared with control: +16.2 days
  Average life expectancy (days), Relative: 27.0 days
[1]
  Solubility in water: freely soluble in water

## COC(=O)C(CO)NC(=O)C(Cc1cnc[nH]1)NC(=O)CCCC(=O)O (stereo not drawn) [Compound 149] (Glutaryl-His-Ser-OMe; configuration not given here)
[2]
  inhibition in vivo at 30 mg/kg: 27.2%
  mortality at 30 mg/kg: 53.3%
  Average life expectancy (days), Compared with control: +8.9 days
  Average life expectancy (days), Relative: 19.6 days
Human virus hRSV
  hRSV in the lungs of mice, Day 5, lg: 2.6 ± 0.1 lg
  Body weight of the mice on day 5 after infection with hRSV (M ± SD): 15.44 ± 0.31
  hRSV in the lungs of mice, Day 7, lg: 2.3 ± 0.4 lg
  Body weight of the mice on day 7 after infection with hRSV (M ± SD): 17.32 ± 0.59
Human virus hRSV; [6]
  log reduction at 30 mg/kg: 1.9 ± 0.1
Human virus hRSV; [7]
  log reduction at 30 mg/kg: 1.4 ± 0.4
[3]
  mortality at 30 mg/kg: 25%
[4]
  Mucous membrane of nasal passages: Without changes (number of animals): 5
  Mucous membrane of nasal passages: Discharge mucus from the nasal passages (number of animals): 5

## O=C(O)CCCC(=O)NCCC1CCCNC1 (stereo not shown) [Compound 5]
Human virus hRSV
  hRSV in the lungs of mice, Day 5, lg: 2.17 ± 0.37 lg
  Body weight of the mice on day 5 after infection with hRSV (M ± SD): 16.02 ± 0.16
  hRSV in the lungs of mice, Day 7, lg: 0.88 ± 0.31 lg
  Body weight of the mice on day 7 after infection with hRSV (M ± SD): 17.78 ± 0.26
Human virus hRSV; [6]
  log reduction at 30 mg/kg: 2.43 ± 0.37
Human virus hRSV; [7]
  log reduction at 30 mg/kg: 2.93 ± 0.31
[5]
  Degree of lung edema on day 5 after infection, score: 1.10 ± 0.19 score
[3]
  mortality at 30 mg/kg: 35%
[4]
  Mucous membrane of nasal passages: Without changes (number of animals): 5
  Mucous membrane of nasal passages: Discharge mucus from the nasal passages (number of animals): 5

## O=C(O)CCCNC(=O)CCc1cnc[nH]1 [Compound 68]
[3]
  mortality at 30 mg/kg: 30%
[4]
  Mucous membrane of nasal passages: Without changes (number of animals): 3
  Mucous membrane of nasal passages: Discharge mucus from the nasal passages (number of animals): 7
[1]
  Solubility in water: freely soluble in water

## CC1(C)S[C@@H]2[C@H](NC(=O)[C@H](N)c3ccccc3)C(=O)N2[C@H]1C(=O)O [Ampicillin, ampicillin, reference compound]
Staphylococcus aureus
  Bacterial growth, in %: 25 (sporadic colonies (up to 10))

## CC(C)(CCC(=O)O)C(=O)NCCc1cnc[nH]1 [Compound 45]
[1]
  Solubility in water: freely soluble in water

## COC(=O)CNC(=O)C(Cc1c[nH]cn1)NC(=O)CCCC(=O)O (stereo not shown) [Compound 193] (Glutaryl-[ξH]-Gly-OMe)
[2]
  inhibition in vivo at 30 mg/kg: 45.3%
  mortality at 30 mg/kg: 40.1%
  Average life expectancy (days), Compared with control: +14.2 days
  Average life expectancy (days), Relative: 24.9 days
[5]
  Degree of lung edema on day 5 after infection, score: 0.80 ± 0.17 score
[3]
  mortality at 30 mg/kg: 25%
[4]
  Mucous membrane of nasal passages: Without changes (number of animals): 6
  Mucous membrane of nasal passages: Discharge mucus from the nasal passages (number of animals): 4
